Here are results for one molecule from patent US20210212320A1, “FRUIT THINNING METHOD WITH 1-AMINOCYCLOPROPANE CARBOXYLIC ACID” (Valent BioSciences LLC, priority 2021, published 2021).

SMILES strings stand for the structures.

One experiment has as its system Sugar May peaches. Description: Effect of ACC concentration on fruit set of Sugar May peaches, applied at full bloom. Type of experiment: in vivo, peach. The text has this:
(§1) Effect of ACC concentration on fruit set (number of fruit per shoot) of Sugar May peaches and Sweet Dream peaches when applied at full bloom

A further experiment concerns Sweet Dream peaches. Description: Effect of ACC concentration on fruit set of Sweet Dream peaches, applied at full bloom. Format: in vivo, peach.
From the text: as §1

Another experiment concerns Gala apples. Description: Effect of ACC concentration on modulating fruit set of Gala apples. Type of experiment: in vivo, apple. The text has this: Effect of ACC concentration on modulating fruit set (number of fruit per 100 flower clusters) of Gala apples when applied at petal fall (BBCH67), 10 mm fruit diameter, or 20 mm fruit diameter.

`NC1(C(=O)O)CC1` [ACC, 1-aminocyclopropane carboxylic acid]: the “Number of Fruit Per Shoot (fruit set)” value in the experiment on Sugar May peaches (ACC 300 parts per million) came to 0.7 fruit per shoot; in the experiment on Sugar May peaches (ACC 600 parts per million), 0.3 fruit per shoot; with Sugar May peaches (ACC 900 parts per million), 0.1 fruit per shoot; with Sweet Dream peaches (ACC 300 parts per million), 12 fruit per shoot; in the experiment with Sweet Dream peaches (ACC 600 parts per million) it was 9 fruit per shoot; in the experiment with Sweet Dream peaches (ACC 900 parts per million), 6 fruit per shoot. Further, the “fruit set (number of fruit per 100 flower clusters)” value was 125 fruit per 100 flower clusters with Gala apples (ACC 224 parts per million, applied at 10 mm fruit diameter); 89 fruit per 100 flower clusters with Gala apples (ACC 224 parts per million, applied at 20 mm fruit diameter); 117 fruit per 100 flower clusters with Gala apples (ACC 224 parts per million, applied at petal fall (BBCH67)); 108 fruit per 100 flower clusters in the experiment on Gala apples (ACC 450 parts per million, applied at 10 mm fruit diameter); 46 fruit per 100 flower clusters in the experiment on Gala apples (ACC 450 parts per million, applied at 20 mm fruit diameter); 96 fruit per 100 flower clusters with Gala apples (ACC 450 parts per million, applied at petal fall (BBCH67)). Also, the “fruit set (number of fruit per 100 flower clusters)” value with Gala apples (ACC 900 parts per million, applied at 10 mm fruit diameter) is given as 63 fruit per 100 flower clusters; in the experiment on Gala apples (ACC 900 parts per million, applied at 20 mm fruit diameter) it was 12 fruit per 100 flower clusters; in the experiment with Gala apples (ACC 900 parts per million, applied at petal fall (BBCH67)) it was 72 fruit per 100 flower clusters.
